Test results reported in ChEMBL document CHEMBL4476876, “Compounds for the modulation of myc activity” (2018).

Legend:
NCI-H2171 = assay: Antiproliferative activity against human NCI-H2171 cells after 72 hrs by ATPlite assay; assay type: functional, cell-based; details: NCI-H2171, 72 h
[1] = target: Myc proto-oncogene protein (Homo sapiens, UniProt P01106); assay: Inhibition of human c-Myc assessed as reduction in c-Myc/Max/Ebox DNA complex formation using pre-formed complex of c-Myc and biotinylated DNA containing single Ebox-sequence followed by compound addition and further addition of his6-tagged c-Max and incubated for 2 hrs by AlphaScreen assay
Myc proto-oncogene protein, sequence (P01106 whole entry): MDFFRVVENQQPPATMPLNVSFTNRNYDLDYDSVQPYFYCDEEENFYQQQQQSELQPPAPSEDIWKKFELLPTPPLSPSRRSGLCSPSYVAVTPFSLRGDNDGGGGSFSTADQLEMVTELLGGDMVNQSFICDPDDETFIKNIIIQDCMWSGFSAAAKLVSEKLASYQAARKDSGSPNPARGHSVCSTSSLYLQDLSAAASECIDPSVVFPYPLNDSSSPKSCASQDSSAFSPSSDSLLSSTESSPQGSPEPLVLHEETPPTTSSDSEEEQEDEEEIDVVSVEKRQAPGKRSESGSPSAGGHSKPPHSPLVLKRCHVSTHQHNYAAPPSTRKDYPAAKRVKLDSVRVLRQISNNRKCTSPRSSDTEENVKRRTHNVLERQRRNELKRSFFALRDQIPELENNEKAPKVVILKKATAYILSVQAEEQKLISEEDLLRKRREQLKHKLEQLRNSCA

IC50 (NCI-H2171) [nM]	IC50 [1] [nM]	SMILES
< 500		CCN1[C@H](C)Cc2c(sc(NC(C)=O)c2-c2nc3c(C(F)F)nccc3s2)[C@H]1C
< 500		CC[C@H](C)NCCC(=O)Nc1sc2c(c1-c1nc3cnccc3s1)C[C@H](C)NC2
	< 500	O=C(CC[N+]12CCN(CC1)CC2)Nc1sc2c(c1-c1nc3cnccc3s1)CCNC2
< 500		CC[C@H](C)NCCC(=O)Nc1sc2c(c1-c1nc3cnccc3s1)CN[C@H](C)C2
